Experimental data: paper PMC11725774 (Cancer Research Communications, 2025)

Tested on: Ba/F3 cells expressing various mutant forms of FLT3
Test: Growth inhibition of Ba/F3 cells
Format: cell-based, murine
Conditions: Mus musculus, BaF3; Ba/F3, various mutant forms of FLT3, range
Protocol: MV-4-11 (CRL-9591), HS-5 (CRL-3611), and KG1a (CCL-246.1) cells were obtained from ATCC. MOLM-13 (ACC 554) and MOLM-14 (ACC 777) were obtained from DSMZ (Deutsche Sammlung von Mikroorganismen und Zellkulturen). MOLM-14 cells contain one WT FLT3 allele and one FLT3-ITD allele. MOLM-14 FLT3-ITD/F691 cells were prepared by transfection of MOLM-14 cells with a vector expressing the FLT3 TKD F691L mutation. MV-4-11 cells expressing NRAS^G12D were prepared by transduction with a lentiviral vector encoding the NRAS^G12D mutation. Assays using a panel of parental Ba/F3 into which an additional copy of either WT or a mutant form of FLT3 was introduced were performed at Kyinno Biotechnology Co., Ltd. All cell lines were short tandem repeat authenticated at ATCC or at DSMZ when originally obtained, and no further authentication was done after receipt of the cells in the laboratory.
Assays using Ba/F3 cells expressing WT and mutant forms of FLT3 were performed by Kyinno Biotechnology. The cells were cultured in the medium recommended by the source for each cell line. Growth inhibition assays were performed using either Cell Titer 96 Aqueous One Solution Cell Proliferation assay (Promega, # G3581) or CCK8 (Dojindo, # CK-04). […] IC50 values were determined from growth inhibition curves fitted using GraphPad Prism and a nonlinear regression model with sigmoidal dose response. […]

Cc1ccc2c(-c3nc(Nc4cc(CN5C[C@@H](C)N[C@@H](C)C5)cc(C5CC5)c4)ncc3Cl)c[nH]c2c1 [TUS, Tuspetinib]
GI50: 2.5 to 56 nM
